Measurements published in paper PMC11995724, “Antibiotic target discovery by integrated phenotypic and activity-based profiling of electrophilic fragments” (Cell chemical biology, 2025).

Test: in vitro
Conditions: human, hek293t cells
In the case of `N#CC(=CC1=Cc2ccccc2OC1)C(=O)NCc1ccccc1` [9-F08, N-benzyl-3-(2H-chromen-3-yl)-2-cyanoprop-2-enamide], the viability at 48 h, 25 µM is reported as 114%.
In the case of `COCC(C)NC(=O)C(C#N)=Cc1cccc(F)c1F` (centres unmarked) [9-F09, 2-cyano-3-(2,3-difluorophenyl)-N-(1-methoxypropan-2-yl)prop-2-enamide], the viability at 48 h, 25 µM is reported as 114%.
With `COc1ccc(C=C(C#N)C(=O)Nc2ccc(C(=O)O)cc2)cc1O` [9-F10, 4-[2-cyano-3-(3-hydroxy-4-methoxyphenyl)prop-2-enamido]benzoic acid] the viability at 48 h, 25 µM was 120%.
`Cc1nn(C)c(C)c1C=C(C#N)C(=O)Nc1ccccc1Cl` [9-F11, N-(2-chlorophenyl)-2-cyano-3-(1,3,5-trimethyl-1H-pyrazol-4-yl)prop-2-enamide] gave a viability at 48 h, 25 µM of 110%.
`CC(=Cc1ccccc1)C=C(C#N)C(=O)NC1CC1` [9-F12, 2-cyano-N-cyclopropyl-4-methyl-5-phenylpenta-2,4-dienamide] gave a viability at 48 h, 25 µM of 92.3%.
With `N#CC(=Cc1ccccc1Cl)C(=O)NCc1ccccc1` [9-F13, N-benzyl-3-(2-chlorophenyl)-2-cyanoprop-2-enamide] the viability at 48 h, 25 µM was 80.5%.
`CC(=O)Nc1ccsc1C=C(C#N)C(=O)Nc1ccc(F)cc1` [9-F14, 2-cyano-3-(3-acetamidothiophen-2-yl)-N-(4-fluorophenyl)prop-2-enamide] showed a viability at 48 h, 25 µM of 98.4%.
`N#CC(=Cc1sc2ccccc2c1Cl)C(=O)Nc1nccs1` [9-F15, 3-(3-chloro-1-benzothiophen-2-yl)-2-cyano-N-(1,3-thiazol-2-yl)prop-2-enamide] gave a viability at 48 h, 25 µM of 117%.
Work on `N#CC(=Cc1ccco1)C(=O)NCc1ccc(-c2cccnc2)cc1` [9-F16, 2-cyano-3-(furan-2-yl)-N-{[4-(pyridin-3-yl)phenyl]methyl}prop-2-enamide] yielded a viability at 48 h, 25 µM of 100%.
`N#CC(=Cc1ccc(N2CCOCC2)cc1)C(=O)Nc1nccs1` [9-F17, 2-cyano-3-[4-(morpholin-4-yl)phenyl]-N-(1,3-thiazol-2-yl)prop-2-enamide] gave a viability at 48 h, 25 µM of 95.6%.
In the case of `CNC(=O)Cn1ccc2ccc(NC(=O)C(C#N)=Cc3ccco3)cc21` [9-F18, 2-cyano-3-(furan-2-yl)-N-{1-[(methylcarbamoyl)methyl]-1H-indol-6-yl}prop-2-enamide], the viability at 48 h, 25 µM is reported as 109%.
Work on `COc1ccc(NC(=O)C(C#N)=Cc2ccco2)cc1` [9-F19, 2-cyano-3-(furan-2-yl)-N-(4-methoxyphenyl)prop-2-enamide] yielded a viability at 48 h, 25 µM of 94.6%.
`N#CC(=Cc1ccc(Oc2cnccn2)cc1)C(=O)NC1CCCC1` [9-F20, 2-cyano-N-cyclopentyl-3-[4-(pyrazin-2-yloxy)phenyl]prop-2-enamide] gave a viability at 48 h, 25 µM of 95.3%.
Compound `N#CC(=Cc1cccc(O)c1)C(=O)NCc1ccco1` [9-F21, 2-cyano-N-[(furan-2-yl)methyl]-3-(3-hydroxyphenyl)prop-2-enamide] has a viability at 48 h, 25 µM of 119%.
In the case of `COc1cc(C=C(C#N)C(=O)Nc2cccc3ncccc23)ccc1O` [9-F22, 2-cyano-3-(4-hydroxy-3-methoxyphenyl)-N-(quinolin-5-yl)prop-2-enamide], the viability at 48 h, 25 µM is reported as 112%.
`CCCNC(=O)C(C#N)=Cc1ccns1` [9-G03, 2-cyano-N-propyl-3-(1,2-thiazol-5-yl)prop-2-enamide] showed a viability at 48 h, 25 µM of 128%.
Work on `N#CC(=Cc1ccccc1O)C(=O)Nc1cccc2ncccc12` [9-G04, 2-cyano-3-(2-hydroxyphenyl)-N-(quinolin-5-yl)prop-2-enamide] yielded a viability at 48 h, 25 µM of 123%.
Work on `N#CC(=Cc1cccc2c1OCCCO2)C(=O)NCc1ccccc1` [9-G05, N-benzyl-2-cyano-3-(3,4-dihydro-2H-1,5-benzodioxepin-6-yl)prop-2-enamide] yielded a viability at 48 h, 25 µM of 114%.
Compound `CCOc1cc(C=C(C#N)C(=O)Nc2cccc(C)c2)ccc1O` [9-G06, 2-cyano-3-(3-ethoxy-4-hydroxyphenyl)-N-(3-methylphenyl)prop-2-enamide] has a viability at 48 h, 25 µM of 105%.
For `CCCn1c(C)cc(C=C(C#N)C(=O)Nc2ccc3c(c2)OCO3)c1C` [9-G07, N-(1,3-dioxaindan-5-yl)-2-cyano-3-(2,5-dimethyl-1-propyl-1H-pyrrol-3-yl)prop-2-enamide], the viability at 48 h, 25 µM was 100%.
